Assay results published in patent US20080227824A1, “5-(Phenylisoxazolylethoxy) - Triazol- 3 -Yl Substituted Pyridine Compounds for the Treatment of Neurological, Psychiatric or Pain Disorders” (Astrazeneca AB, priority 2005, published 2008).

Tests used:
[1] = Intrinsic dissolution rate, low-volume rotating disc method; type: physicochemical; settings: salt made at 1 g scale from ethanol; disc 0.07 cm^2, 500 rpm, 50 mL USP Phosphate buffer pH 6.8 at 37° C
Method: The salt manufactured at 1 g scale from ethanol was further investigated for its intrinsic dissolution rate and compared to the free base of 4-(5-{(1R)-1-[5-(3-chlorophenyl)isoxazol-3-yl]ethoxy}-4-methyl-4H-1,2,4-triazol-3-yl)pyridine. […] Dissolution rates of the base and salt were measured with a low-volume rotating disc method. Discs were compressed from pure compound and centrically mounted in a disc holder with an exposed area of 0.07 cm^2. The disc holder rotated at 500 rpm immersed in 50 mL USP Phosphate buffer pH 6.8 at 37° C. The compound was analysed UV-Online by a Spectrophotometer with a flow cell and a peristaltic pump with continuous circulation.

[2] = Moisture sorption / deliquescence of the salts at relative humidity; type: physicochemical

Compound	intrinsic dissolution rate of the salt as compared to the free base [1]	relative humidity at which moisture sorption is increased ([2]; first batch from ethanol)	relative humidity at which the salt deliquesces ([2]; salt manufactured again from ethanol at 68° C)	relative humidity at which the salt deliquesces ([2]; salt recrystallised from the oiled salt in ethanol)
C[C@@H](Oc1nnc(-c2ccncc2)n1C)c1cc(-c2cccc(Cl)c2)on1.Cl [Example 17, 4-(5-{(1R)-1-[5-(3-chlorophenyl)isoxazol-3-yl]ethoxy}-4-methyl-4H-1,2,4-triazol-3-yl)pyridine hydrochloride]	1000 times	90-95 % RH		
C[C@@H](Oc1nnc(-c2ccncc2)n1C)c1cc(-c2cccc(Cl)c2)on1.O=S(=O)(O)O [Example 18, 4-(5-{(1R)-1-[5-(3-chlorophenyl)isoxazol-3-yl]ethoxy}-4-methyl-4H-1,2,4-triazol-3-yl)pyridine sulphate]			70-80 % RH	60-70 % relative humidity
